According to patent US20160199463A1, “HDAC2 DEFENDS VASCULAR ENDOTHELIUM FROM INJURY” (The Johns Hopkins University, priority 2014, published 2016):

Legend:
[1] = test system: aortic rings of wild-type mice; experiment: Force tension (wire) myography, vascular relaxation of isolated wild-type mouse aortic rings; assay type: cell-based
Protocol: (§1) Mouse aorta was isolated and cleaned in ice-cold Krebs-Ringer-bicarbonate solution containing the following (in mM): 118.3 NaCl, 4.7 KCl, 1.6 CaCl2, 1.2 KH2 PO4, 25 NaHCO3, 1.2 MgSO4, and 11.1 dextrose. The aorta was immersed in a bath filled with constantly oxygenated Krebs buffer at 37° C. Equal size thoracic aortic rings (2 mm) were mounted using a microscope, ensuring no damage to the smooth muscle or endothelium. One end of the aortic rings was connected to a transducer, and the other to a micromanipulator. Aorta was passively stretched to an optimal resting tension using the micromanipulator, after which a dose of 60 mM KCl was administered, and repeated after a wash with Krebs buffer. After these washes, all vessels were allowed to equilibrate for 20-30 min in the presence of indomethacin (3 μM). Phenylephrine (1 μM) was administered to induce vasoconstriction. A dosedependent response (1 nM to 10 μM), with the muscarinic agonist, ACH or nitric oxide donor, SNP, was then performed as necessary. The responses were repeated in the presence of inhibitors. Relaxation responses were calculated as a percentage of tension following pre-constriction. Sigmoidal dose-response curves were fitted to data with the minimum constrained to 0. Two to four rings were isolated from each animal and the number of animals in each group (n) was 6.

Arg2 mRNA = Arg2 mRNA in HAECs (RT-PCR, real-time PCR); assay type: cell-based, human; conditions: preincubated with TSA
Protocol: Total RNA was extracted from segments of mice aortas and HAEC using Trizol and PureLink (Invitrogen). RNA was then reverse transcribed with oligo dT primers to obtain cDNA and quantitative real time PCR (Applied Biosystems) was performed using SYBR Green Supermix mix (Applied Biosystems) whereas semiquantitative RTPCR was performed using conventional Biorad PCR machine and the following primer sets: Real Time PCR data are expressed as “fold change”, which is calculated as 2-ΔΔCt.

[2] = test system: arginase activity in mice aortas; experiment: Arginase activity in isolated segments of mice aorta; assay type: cell-based, mouse; conditions: TSA 200 nmol/L
Arg2 = Arg2 protein expression in HAECs (Western blot); assay type: cell-based, human
Protocol: (§2) After 48 hrs of HAEC cells transfection, cells were lysed in ice cold RIPA lysis buffer consisting of 20 mM Tris-HCl at pH 7.5, 150 mM NaCl, 1 mM EDTA, 1 mM EGTA, 1% NP40, 1% sodium deoxycholate, 1 mM Na3VO4, 2.5 mM sodium pyrophosphate, 1 mM 3-glycerophosphate, 1 μg/mL leupeptin, and a 1:1000 diluted protease inhibitor cocktail (Sigma). For immunoprecipitation studies, whole cell lysate lysates were centrifuged at 14,000×g and supernatants were precleared by incubation with Protein A/G-agarose beads for 2 h at 4° C. with rocking. Agarose beads were then pelleted by centrifugation at 1,000×g. FLAG-Arg2 in precleared lysates were immunoprecipitated by incubation overnight at 4° C. with rocking following addition of anti-FLAG antibody (10 μl). Immune complexes were eluted in 2×SDS sample buffer by boiling for 5 minutes before loading into SDS-PAGE. Western blotting analysis was performed by transferring the SDS gel onto a PVDF membrane and visualized using secondary antibodies conjugated to alkaline phosphatases.

[3] = test system: calcium-insensitive eNOS in HEK 293 cells; experiment: NO radicals in medium of HEK 293 cells expressing calcium-insensitive eNOS (DCFH-DiOxyQ assay); assay type: cell-based, human; conditions: TSA alone
Protocol: Nitric Oxide levels in HAEC were determined using DAF-DA as per manufacture instructions (Life Sciences). Briefly, cells were loaded with DAF-DA (5 μM) for 20 min and washed 3 times with PBS and incubated for another 30 min in phenol-free media. Fluorescence was determined using a Nikon TE-200 epifluorescence microscope. Images were captured with a Rolera EMC2 camera (Q-Imaging, BC, Canada) with Velocity software (PerkinElmer, Lexington, Mass.). NO production in the cell culture media was also determined by measuring Nitrite levels using a Siever's NO analyzer. NO radicals were measured in cell media collected after 24 hours of treatment using the Oxiselect assay (Cell Biolabs, San Diego, Calif.).
Next, the functional consequences of HDAC inhibition on downstream endothelial cell signaling were evaluated. Because eNOS-derived NO plays a central role in endothelial function, eNOS activity was assessed by measuring NO production using 3 different assays. […] HEK 293 cells lack native eNOS expression, but do produce abundant Arg2. Cell medium from 293 cells transfected with a control plasmid (LacZ) was used as a control background signal that was subtracted from all the groups containing calcium-insensitive endothelial nitric oxide synthase.

[4] = test system: aortic rings from Arg2−/− mice; experiment: Force tension (wire) myography, vascular relaxation of aortic rings from Arg2-/- mice; assay type: cell-based, mouse; conditions: Arg2−/− mice; TSA 200 nmol/L; n=6
Protocol: as §1

eNOS = eNOS expression in HAECs (immunoblot); assay type: cell-based, human; conditions: 1 μmol/L, 18 hours
Protocol: as §2

Q: For `CC(/C=C/C(=O)NO)=C\[C@@H](C)C(=O)c1ccc(N(C)C)cc1` [TSA, trichostatin A], which “SNP-mediated (endothelium-independent) vasorelaxation versus vehicle-only control” value ([1]; TSA 200 nmol/L or MGCD0103 1 μmol/L, 18 hours) is on record?
A: no significant difference

Q: What about the “Emax acetylcholine-mediated (endothelium-dependent) vasorelaxation” value ([1]; TSA 200 nmol/L, 18 hours preincubation, n=6) of the same compound?
A: 31.24±7.8%

Q: What about the “Arg2 mRNA” value (Arg2 mRNA) of the same compound?
A: substantially upregulated

Q: What about the arginase activity [2] of the same compound?
A: robust increase

Q: What about the “Arg2 expression, broad-spectrum HDAC inhibitors” value (Arg2; 1 μmol/L, 18 hours) of the same compound?
A: upregulated

Q: What about the “concentration of maximum effect on Arg2 protein” value (Arg2; 18 hours) of the same compound?
A: 1 µmol/L

Q: And the “Arg2 protein expression, dose dependence” value (Arg2; TSA 0, 0.1, 0.3, and 1 μmol/L, 18 hours)?
A: dose-dependent fashion

Q: What about the Arg2 expression (Arg2; TSA 400 nmol/L, 18 hours) of the same compound?
A: increased

Q: What about the “time at which increase in Arg2 protein expression is observed” value (Arg2; TSA 1 μmol/L) of the same compound?
A: 8 h

Q: And the NO production [3]?
A: decreased

Q: And the “Emax endothelial cell-dependent vasorelaxation” value [4]?
A: 66.3±7.54%

Q: And the eNOS expression (eNOS)?
A: negligible effect
